Measured values published in PMC3177992 (Chemical research in toxicology, 2011).

Assays:
Type in all cases: in vitro ADME
UGT1A1 = target: T1, UGT1A1 (Homo sapiens, UniProt P22309); test: Glucuronidation assay, UGT1A1-over-expressing HEK293 cell homogenate
T1 sequence (P22309 26-533): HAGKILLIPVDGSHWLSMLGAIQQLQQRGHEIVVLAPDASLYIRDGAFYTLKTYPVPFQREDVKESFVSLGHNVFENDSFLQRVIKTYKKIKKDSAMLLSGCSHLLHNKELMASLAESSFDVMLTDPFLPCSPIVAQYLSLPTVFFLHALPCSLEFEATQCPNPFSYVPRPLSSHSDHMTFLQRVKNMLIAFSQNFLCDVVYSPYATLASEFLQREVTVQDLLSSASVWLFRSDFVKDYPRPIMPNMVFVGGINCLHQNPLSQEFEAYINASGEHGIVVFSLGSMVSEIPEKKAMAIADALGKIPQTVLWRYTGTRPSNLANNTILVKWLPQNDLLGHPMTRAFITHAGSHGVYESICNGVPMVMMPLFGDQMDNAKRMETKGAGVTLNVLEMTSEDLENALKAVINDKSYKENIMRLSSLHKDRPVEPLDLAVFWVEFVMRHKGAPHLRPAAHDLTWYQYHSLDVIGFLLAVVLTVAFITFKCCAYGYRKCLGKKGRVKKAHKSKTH

UGT1A7 = target: T2, UGT1A7 (Homo sapiens, UniProt Q9HAW7); test: Glucuronidation assay, UGT1A7-over-expressing HEK293 cell homogenate
T2 sequence (Q9HAW7 26-530): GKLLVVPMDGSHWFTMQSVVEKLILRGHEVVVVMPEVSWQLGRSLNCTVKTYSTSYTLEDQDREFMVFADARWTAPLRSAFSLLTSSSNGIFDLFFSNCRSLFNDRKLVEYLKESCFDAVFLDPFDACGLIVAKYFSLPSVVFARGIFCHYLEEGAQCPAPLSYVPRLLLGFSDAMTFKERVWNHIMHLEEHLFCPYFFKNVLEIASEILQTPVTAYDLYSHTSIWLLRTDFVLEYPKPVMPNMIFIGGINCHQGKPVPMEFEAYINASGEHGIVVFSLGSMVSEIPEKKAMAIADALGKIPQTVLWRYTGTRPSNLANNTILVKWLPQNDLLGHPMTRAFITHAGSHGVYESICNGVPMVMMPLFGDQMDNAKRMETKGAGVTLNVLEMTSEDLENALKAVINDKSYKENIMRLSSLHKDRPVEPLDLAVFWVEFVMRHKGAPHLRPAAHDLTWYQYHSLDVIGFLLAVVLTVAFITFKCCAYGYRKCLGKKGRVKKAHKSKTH

UGT1A8 = target: T3, UGT1A8 (Homo sapiens, UniProt Q9HAW9); test: Glucuronidation assay, UGT1A8-over-expressing HEK293 cell homogenate
T3 sequence (Q9HAW9 26-530): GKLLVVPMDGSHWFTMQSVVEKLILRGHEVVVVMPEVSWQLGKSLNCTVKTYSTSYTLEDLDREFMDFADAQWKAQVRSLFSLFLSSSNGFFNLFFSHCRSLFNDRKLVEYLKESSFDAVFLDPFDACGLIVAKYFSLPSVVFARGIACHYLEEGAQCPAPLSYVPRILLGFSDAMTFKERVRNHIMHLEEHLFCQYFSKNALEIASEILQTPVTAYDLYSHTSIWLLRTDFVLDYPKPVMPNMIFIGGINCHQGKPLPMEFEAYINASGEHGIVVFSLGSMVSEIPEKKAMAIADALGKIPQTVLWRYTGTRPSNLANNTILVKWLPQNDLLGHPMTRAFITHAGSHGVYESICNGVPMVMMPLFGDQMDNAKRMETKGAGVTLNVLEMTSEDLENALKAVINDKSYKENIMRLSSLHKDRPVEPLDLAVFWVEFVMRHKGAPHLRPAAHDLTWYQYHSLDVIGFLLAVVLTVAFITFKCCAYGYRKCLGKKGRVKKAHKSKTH

UGT1A9 = target: T4, UGT1A9 (Homo sapiens, UniProt O60656); test: Glucuronidation assay, UGT1A9-over-expressing HEK293 cell homogenate
T4 sequence (O60656 26-530): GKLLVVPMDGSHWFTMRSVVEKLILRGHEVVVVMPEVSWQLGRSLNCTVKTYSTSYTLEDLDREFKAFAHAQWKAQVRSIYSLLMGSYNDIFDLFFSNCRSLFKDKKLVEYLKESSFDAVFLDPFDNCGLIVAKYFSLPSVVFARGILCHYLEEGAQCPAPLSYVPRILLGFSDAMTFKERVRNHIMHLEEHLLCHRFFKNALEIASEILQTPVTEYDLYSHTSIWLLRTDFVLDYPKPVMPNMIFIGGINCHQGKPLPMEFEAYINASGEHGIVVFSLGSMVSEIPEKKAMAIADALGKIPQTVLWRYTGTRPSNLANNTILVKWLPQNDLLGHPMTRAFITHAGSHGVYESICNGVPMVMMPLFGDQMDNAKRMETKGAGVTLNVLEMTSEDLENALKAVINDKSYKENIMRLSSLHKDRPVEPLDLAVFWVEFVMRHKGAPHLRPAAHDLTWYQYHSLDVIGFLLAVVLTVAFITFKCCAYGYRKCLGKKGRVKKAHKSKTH

UGT1A10 = target: T5, UGT1A10 (Homo sapiens, UniProt Q9HAW8); test: Glucuronidation assay, UGT1A10-over-expressing HEK293 cell homogenate
T5 sequence (Q9HAW8 26-530): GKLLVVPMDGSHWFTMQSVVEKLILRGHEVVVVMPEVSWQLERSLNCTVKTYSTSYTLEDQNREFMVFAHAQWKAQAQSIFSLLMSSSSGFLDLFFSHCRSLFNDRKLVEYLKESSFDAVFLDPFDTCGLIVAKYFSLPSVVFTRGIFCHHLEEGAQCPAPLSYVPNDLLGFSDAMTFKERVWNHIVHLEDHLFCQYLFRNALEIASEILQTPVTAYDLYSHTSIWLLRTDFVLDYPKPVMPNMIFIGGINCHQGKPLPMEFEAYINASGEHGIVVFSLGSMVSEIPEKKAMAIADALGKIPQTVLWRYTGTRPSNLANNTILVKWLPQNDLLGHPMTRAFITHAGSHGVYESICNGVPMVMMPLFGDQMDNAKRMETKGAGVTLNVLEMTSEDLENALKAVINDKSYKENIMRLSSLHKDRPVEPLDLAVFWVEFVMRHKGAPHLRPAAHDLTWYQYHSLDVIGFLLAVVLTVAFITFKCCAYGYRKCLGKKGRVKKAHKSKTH

UGT2B7 = target: T6, UGT2B7 (Homo sapiens, UniProt P16662); test: Glucuronidation assay, UGT2B7-over-expressing HEK293 cell homogenate
T6 sequence (P16662 24-529): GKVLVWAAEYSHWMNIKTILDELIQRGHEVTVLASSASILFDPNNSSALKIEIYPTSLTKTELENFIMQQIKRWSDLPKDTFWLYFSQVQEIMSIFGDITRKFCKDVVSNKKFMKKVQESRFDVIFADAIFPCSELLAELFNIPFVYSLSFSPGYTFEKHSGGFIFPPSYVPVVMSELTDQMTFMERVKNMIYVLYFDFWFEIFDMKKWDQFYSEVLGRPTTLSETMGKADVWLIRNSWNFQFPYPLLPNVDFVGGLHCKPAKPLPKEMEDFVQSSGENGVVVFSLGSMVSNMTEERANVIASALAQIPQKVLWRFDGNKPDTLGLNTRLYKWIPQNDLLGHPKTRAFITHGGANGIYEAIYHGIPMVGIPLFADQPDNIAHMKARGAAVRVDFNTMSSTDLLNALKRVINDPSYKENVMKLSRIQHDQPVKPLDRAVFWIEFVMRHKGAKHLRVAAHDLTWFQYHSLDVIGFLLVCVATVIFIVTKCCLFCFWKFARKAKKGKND

[1] = glucuronide formation from the respective diol enantiomer

Km (UGT1A1): 76 ± 21 µM
ratio of (+)-DB[a,l]P-11-Gluc : (+)-DB[a,l]P-12-Gluc : (−)-DB[a,l]P-11-Gluc formation (UGT1A1): 52
kcat/Km (UGT1A1; [1]): 102 ± 25 M⁻¹ s⁻¹
Km (UGT1A7): 43 ± 7 µM
ratio of (+)-DB[a,l]P-11-Gluc : (−)-DB[a,l]P-11-Gluc formation (UGT1A7): 67
kcat/Km (UGT1A7; [1]): 3.83 ± 1.83 M⁻¹ s⁻¹
Km (UGT1A8): 194 ± 39 µM
ratio of (+)-DB[a,l]P-11-Gluc : (−)-DB[a,l]P-11-Gluc formation (UGT1A8): 48
kcat/Km (UGT1A8; [1]): 13.3 ± 2 M⁻¹ s⁻¹
Km (UGT1A9): 0.17 ± 0.01 µM
ratio of (+)-DB[a,l]P-11-Gluc : (−)-DB[a,l]P-11-Gluc formation (UGT1A9): 30
fold higher activity (kcat/KM) of UGT1A9 than UGT1A1 (UGT1A9; comparing kcat/KM values): approximately 489 fold
kcat/Km (UGT1A9; [1]): 49670 ± 2430 M⁻¹ s⁻¹
Km (UGT1A10): 33 ± 9.8 µM
ratio of (+)-DB[a,l]P-11-Gluc : (+)-DB[a,l]P-12-Gluc : (−)-DB[a,l]P-11-Gluc formation (UGT1A10): 19
fold higher activity (kcat/KM) of UGT1A10 compared to UGTs 1A7 and 1A8 (UGT1A10; comparing kcat/KM values): 12–72 fold
kcat/Km (UGT1A10; [1]): 158 ± 33.3 M⁻¹ s⁻¹
Km (UGT2B7): 175 ± 25 µM
kcat/Km (UGT2B7; [1]): 6.33 ± 0.17 M⁻¹ s⁻¹
Structure (SMILES): O=C(O)[C@H]1O[C@@H](O[C@H]2c3cc4ccc5cccc6c7ccccc7c(c3C=C[C@@H]2O)c4c56)[C@H](O)[C@@H](O)[C@@H]1O (relative stereo) [(+)-DB[a,l]P-11-Gluc, DB[a,l]P-(+)-trans-11-Gluc,12-ol]
